Reference: ChEMBL document CHEMBL4308841, “Synthesis, in vitro antiproliferative activity, and kinase inhibitory effects of pyrazole-containing diarylureas and diarylamides” (Eur J Med Chem, 2018)

Each compound was assayed on KM12 (assay: Growth inhibition of human KM12 cells assessed as cell growth at 10 uM incubated for 48 hrs by sulforhodamine B assay relative to control). Conditions: KM12, 48 h, read-out: Activity.
Type: functional

| SMILES | growth at 10 µM [%] |
| --- | --- |
| COc1cc(Cl)cc(-c2nn(-c3cccc(NC(=O)Nc4cc(C(F)(F)F)cc(C(F)(F)F)c4)c3)cc2-c2ccncc2)c1 | 12.2 |

Each compound was assayed on SF-295 (assay: Growth inhibition of human SF295 cells assessed as cell growth at 10 uM incubated for 48 hrs by sulforhodamine B assay relative to control). Conditions: SF-295, 48 h, read-out: Activity.
Type: functional

| SMILES | growth at 10 µM [%] |
| --- | --- |
| COc1cc(Cl)cc(-c2nn(-c3cccc(NC(=O)Nc4cc(C(F)(F)F)cc(C(F)(F)F)c4)c3)cc2-c2ccncc2)c1 | -43.2 |

These compounds were tested on SF-268 (assay: Growth inhibition of human SF268 cells assessed as cell growth at 10 uM incubated for 48 hrs by sulforhodamine B assay relative to control). Conditions: SF-268, 48 h, read-out: Activity.
Type: functional

| SMILES | growth at 10 µM [%] |
| --- | --- |
| COc1cc(Cl)cc(-c2nn(-c3cccc(NC(=O)Nc4cc(C(F)(F)F)cc(C(F)(F)F)c4)c3)cc2-c2ccncc2)c1 | 14.2 |

These compounds were tested on CCRF-CEM (assay: Growth inhibition of human CCRF-CEM cells assessed as cell growth at 10 uM incubated for 48 hrs by sulforhodamine B assay relative to control). Conditions: read-out: Activity.
Type: functional

| SMILES | growth at 10 µM [%] |
| --- | --- |
| COc1cc(Cl)cc(-c2nn(-c3cccc(NC(=O)Nc4cc(C(F)(F)F)cc(C(F)(F)F)c4)c3)cc2-c2ccncc2)c1 | -22 |

What follows are compounds tested on NCI-H23 (assay: Growth inhibition of human NCI-H23 cells assessed as cell growth at 10 uM incubated for 48 hrs by sulforhodamine B assay relative to control). Conditions: NCI-H23, 48 h, read-out: Activity.
Type: functional

| SMILES | growth at 10 µM [%] |
| --- | --- |
| COc1cc(Cl)cc(-c2nn(-c3cccc(NC(=O)Nc4cc(C(F)(F)F)cc(C(F)(F)F)c4)c3)cc2-c2ccncc2)c1 | -6.14 |

Each compound was assayed on HCT-15 (assay: Growth inhibition of human HCT15 cells assessed as cell growth at 10 uM incubated for 48 hrs by sulforhodamine B assay relative to control). Conditions: HCT-15, 48 h, read-out: Activity.
Type: functional

| SMILES | growth at 10 µM [%] |
| --- | --- |
| COc1cc(Cl)cc(-c2nn(-c3cccc(NC(=O)Nc4cc(C(F)(F)F)cc(C(F)(F)F)c4)c3)cc2-c2ccncc2)c1 | 6.21 |

Each compound was assayed on OVCAR-4 (assay: Growth inhibition of human OVCAR4 cells assessed as cell growth at 10 uM incubated for 48 hrs by sulforhodamine B assay relative to control). Conditions: OVCAR-4, 48 h, read-out: Activity.
Type: functional

| SMILES | growth at 10 µM [%] |
| --- | --- |
| COc1cc(Cl)cc(-c2nn(-c3cccc(NC(=O)Nc4cc(C(F)(F)F)cc(C(F)(F)F)c4)c3)cc2-c2ccncc2)c1 | 11.8 |

What follows are compounds tested on Malme-3M (assay: Growth inhibition of human MALME-3M cells assessed as cell growth at 10 uM incubated for 48 hrs by sulforhodamine B assay relative to control). Conditions: read-out: Activity.
Type: functional

| SMILES | growth at 10 µM [%] |
| --- | --- |
| COc1cc(Cl)cc(-c2nn(-c3cccc(NC(=O)Nc4cc(C(F)(F)F)cc(C(F)(F)F)c4)c3)cc2-c2ccncc2)c1 | -19.2 |

Each compound was assayed on COLO 205 (assay: Growth inhibition of human COLO205 cells assessed as cell growth at 10 uM incubated for 48 hrs by sulforhodamine B assay relative to control). Conditions: COLO 205, 48 h, read-out: Activity.
Type: functional

| SMILES | growth at 10 µM [%] |
| --- | --- |
| COc1cc(Cl)cc(-c2nn(-c3cccc(NC(=O)Nc4cc(C(F)(F)F)cc(C(F)(F)F)c4)c3)cc2-c2ccncc2)c1 | -64 |

What follows are compounds tested on BT-549 (assay: Growth inhibition of human BT549 cells assessed as cell growth at 10 uM incubated for 48 hrs by sulforhodamine B assay relative to control). Conditions: BT-549, 48 h, read-out: Activity.
Type: functional

| SMILES | growth at 10 µM [%] |
| --- | --- |
| COc1cc(Cl)cc(-c2nn(-c3cccc(NC(=O)Nc4cc(C(F)(F)F)cc(C(F)(F)F)c4)c3)cc2-c2ccncc2)c1 | 6.61 |

Each compound was assayed on A498 (assay: Growth inhibition of human A498 cells assessed as cell growth at 10 uM incubated for 48 hrs by sulforhodamine B assay relative to control). Conditions: A498, 48 h, read-out: Activity.
Type: functional

| SMILES | growth at 10 µM [%] |
| --- | --- |
| COc1cc(Cl)cc(-c2nn(-c3cccc(NC(=O)Nc4cc(C(F)(F)F)cc(C(F)(F)F)c4)c3)cc2-c2ccncc2)c1 | -21.6 |

These compounds were tested on OVCAR-5 (assay: Growth inhibition of human OVCAR5 cells assessed as cell growth at 10 uM incubated for 48 hrs by sulforhodamine B assay relative to control). Conditions: OVCAR-5, 48 h, read-out: Activity.
Type: functional

| SMILES | growth at 10 µM [%] |
| --- | --- |
| COc1cc(Cl)cc(-c2nn(-c3cccc(NC(=O)Nc4cc(C(F)(F)F)cc(C(F)(F)F)c4)c3)cc2-c2ccncc2)c1 | 21.6 |

Each compound was assayed on U-251 (assay: Growth inhibition of human U251 cells assessed as cell growth at 10 uM incubated for 48 hrs by sulforhodamine B assay relative to control). Conditions: U-251, 48 h, read-out: Activity.
Type: functional

| SMILES | growth at 10 µM [%] |
| --- | --- |
| COc1cc(Cl)cc(-c2nn(-c3cccc(NC(=O)Nc4cc(C(F)(F)F)cc(C(F)(F)F)c4)c3)cc2-c2ccncc2)c1 | -58 |

The compounds below were run on MDA-MB-231 (assay: Growth inhibition of human MDA-MB-231 cells assessed as cell growth at 10 uM incubated for 48 hrs by sulforhodamine B assay relative to control). Conditions: MDA-MB-231, 48 h, read-out: Activity.
Type: functional

| SMILES | growth at 10 µM [%] |
| --- | --- |
| COc1cc(Cl)cc(-c2nn(-c3cccc(NC(=O)Nc4cc(C(F)(F)F)cc(C(F)(F)F)c4)c3)cc2-c2ccncc2)c1 | -75 |

The compounds below were run on Hs-578T (assay: Growth inhibition of human Hs578T cells assessed as cell growth at 10 uM incubated for 48 hrs by sulforhodamine B assay relative to control). Conditions: read-out: Activity.
Type: functional

| SMILES | growth at 10 µM [%] |
| --- | --- |
| COc1cc(Cl)cc(-c2nn(-c3cccc(NC(=O)Nc4cc(C(F)(F)F)cc(C(F)(F)F)c4)c3)cc2-c2ccncc2)c1 | 5.82 |

Each compound was assayed on M14 (assay: Growth inhibition of human M14 cells assessed as cell growth at 10 uM incubated for 48 hrs by sulforhodamine B assay relative to control). Conditions: M14, 48 h, read-out: Activity.
Type: functional

| SMILES | growth at 10 µM [%] |
| --- | --- |
| COc1cc(Cl)cc(-c2nn(-c3cccc(NC(=O)Nc4cc(C(F)(F)F)cc(C(F)(F)F)c4)c3)cc2-c2ccncc2)c1 | 1.22 |
